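Grown in 96-well plates, cells were treated for 48 hours with each compound at five concentrations. Insufficient inhibition: endpoint recorded as highest concentration tested. Here, GI50 denotes the concentration required for 50% inhibition of growth. Definition used: TGI = concentration required for complete inhibition of growth.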
Key:
Assay in all cases: inhibition of tumour cell growth, NCI panel, 48 h
[1] = tested on: COLO 205 colon
[2] = tested on: EKVX NSCLC
[3] = tested on: M14 melanoma
[4] = tested on: MOLT-4 leukemia
[5] = tested on: NCI-H522 lung
[6] = tested on: SF-295 CNS
[7] = tested on: SN12C renal
[8] = tested on: U251 CNS
[9] = tested on: UACC-62 melanoma
[10] = tested on: CCRF-CEM leukemia

Row | Compound | TGI [1] [µM] | TGI [2] [µM] | TGI [3] [µM] | TGI [4] [µM] | TGI [5] [µM] | TGI [6] [µM] | TGI [7] [µM] | TGI [8] [µM] | TGI [9] [µM] | TGI [10] [µM] | GI50 [10] [µM] | GI50 [2] [µM] | GI50 [3] [µM] | GI50 [4] [µM] | GI50 [5] [µM] | GI50 [6] [µM] | GI50 [7] [µM] | GI50 [8] [µM] | GI50 [9] [µM] | GI50 [1] [µM]
1 | Cc1c(C2CCSc3ccccc3N2)sc2ccccc12 (configuration not stated) | > 100 | > 100 | > 100 | > 100 | > 100 | > 100 | > 100 | > 100 | > 100 |  |  |  |  |  |  |  |  |  |  | 
2 | COC(=O)C(C)Oc1ccc(O)cc1 (configuration not stated) | > 100 | > 100 | > 100 |  | > 100 | > 100 | > 100 | > 100 | > 100 | > 100 |  |  |  |  |  |  |  |  |  | 
3 | N/C(CC(=O)NOC(=O)c1ccccc1)=N/OC(=O)c1ccccc1 | > 100 | 77.5 | > 100 | 75.9 |  | 61.6 | > 100 | > 100 | > 100 | > 100 |  |  |  |  |  |  |  |  |  | 
4 | c1ccc(-c2cc3n4c(-c5ccccc5)nn(-c5ccccc5)c4cnc-3n2)cc1 |  | > 50 | > 50 | > 50 | > 50 | > 50 | > 50 | > 50 | > 50 | > 50 | > 50 | 17 | > 50 | > 50 | > 50 | 2.35 | > 50 | 7.85 | > 50 | 
5 | O=C(N/C(=C\c1ccc(F)cc1)c1nc2ccccc2[nH]1)c1ccccc1 | > 100 | > 100 | > 100 | > 100 | > 100 |  | > 100 | > 100 | > 100 | > 100 |  |  |  |  |  |  |  |  |  | 
6 | C=CCCC(=O)CC(=O)OCc1ccccc1 | > 100 | > 100 | > 100 | > 100 |  | > 100 | > 100 | > 100 | > 100 | > 100 |  |  |  |  |  |  |  |  |  | 
7 | O=[N+]([O-])c1ccc2nc(-c3ccc(Cl)cc3)[nH]c2c1 | 30.7 | 40.3 | 34.5 | > 100 | 30.5 | 42.7 | > 100 |  | 42 |  |  |  |  |  |  |  |  |  |  | 
8 | CC/C(C)=C1\CCC(CN(C)C)C1=O (configuration not stated) |  | 44 | 33.6 | 70.9 |  | > 100 | 38.3 |  | > 100 | 39.8 |  |  |  |  |  |  |  |  |  | 
9 | Cc1nc(-n2nc(-c3ccccc3)cc2-c2ccccc2)sc1C(=O)/C=C/c1cccc([N+](=O)[O-])c1 | 30.8 | > 100 |  | 22.4 | 30.8 | 43.1 | 73.4 | 32.5 | 27.5 | 44.4 |  |  |  |  |  |  |  |  |  | 
10 | C=Cc1cc(OC)c2c(c1)c(=O)oc1c2cc(OC)c2c(O)ccc(C3OC(C(C)O)C(O)C3O)c21 (configuration not stated) | 0.102 | 0.0336 | 0.0302 |  | 0.03 | 0.0431 | 0.172 |  | 0.0296 | 0.0312 | 0.00245 | 0.00403 | 0.011 |  | 0.00475 | 0.00366 | 0.0229 |  | 0.0112 | 0.0113
11 | COC1CC(n2cc(F)c(N)nc2=O)OC1CO (configuration not stated) | > 100 | > 100 | > 100 | > 100 | > 100 | > 100 | > 100 | > 100 |  | > 100 |  |  |  |  |  |  |  |  |  | 

— PubChem BioAssay (NCI)
